Measurements: ChEMBL document CHEMBL4630901 (2021)

What was measured:
Conditions in all cases: Compound concentration 10.0 uM
[1] = target: 5-hydroxytryptamine receptor 2B (Homo sapiens) (UniProt P41595)
[2] = target: T1, 5-hydroxytryptamine receptor 2C (Homo sapiens) (UniProt P28335)
T1 sequence (whole entry): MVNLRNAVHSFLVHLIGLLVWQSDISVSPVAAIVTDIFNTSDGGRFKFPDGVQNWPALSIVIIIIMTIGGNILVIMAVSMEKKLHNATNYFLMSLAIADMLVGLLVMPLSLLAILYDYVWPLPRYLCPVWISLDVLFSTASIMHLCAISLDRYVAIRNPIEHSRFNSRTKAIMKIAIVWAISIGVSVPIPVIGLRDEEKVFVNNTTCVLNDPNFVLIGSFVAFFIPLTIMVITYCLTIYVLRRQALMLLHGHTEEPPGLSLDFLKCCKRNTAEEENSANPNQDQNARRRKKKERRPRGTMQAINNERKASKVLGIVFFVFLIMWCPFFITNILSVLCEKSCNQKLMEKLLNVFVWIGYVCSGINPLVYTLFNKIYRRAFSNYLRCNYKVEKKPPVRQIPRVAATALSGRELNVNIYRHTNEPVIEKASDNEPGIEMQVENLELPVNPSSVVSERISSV

[3] = target: 5-hydroxytryptamine receptor 6 (Homo sapiens) (UniProt P50406)
[4] = target: 5-hydroxytryptamine receptor 7 (Homo sapiens) (UniProt P34969)
[5] = target: D(2) dopamine receptor (Homo sapiens) (UniProt P14416)
[6] = target: D(1B) dopamine receptor (Homo sapiens) (UniProt P21918)
[7] = target: Mu-type opioid receptor (Homo sapiens) (UniProt P35372)
[8] = target: Kappa-type opioid receptor (Homo sapiens) (UniProt P41145)
[9] = target: Histamine H1 receptor (Homo sapiens) (UniProt P35367)
[10] = target: T2, Alpha-1A adrenergic receptor (Homo sapiens) (UniProt P35348)
T2 sequence (whole entry): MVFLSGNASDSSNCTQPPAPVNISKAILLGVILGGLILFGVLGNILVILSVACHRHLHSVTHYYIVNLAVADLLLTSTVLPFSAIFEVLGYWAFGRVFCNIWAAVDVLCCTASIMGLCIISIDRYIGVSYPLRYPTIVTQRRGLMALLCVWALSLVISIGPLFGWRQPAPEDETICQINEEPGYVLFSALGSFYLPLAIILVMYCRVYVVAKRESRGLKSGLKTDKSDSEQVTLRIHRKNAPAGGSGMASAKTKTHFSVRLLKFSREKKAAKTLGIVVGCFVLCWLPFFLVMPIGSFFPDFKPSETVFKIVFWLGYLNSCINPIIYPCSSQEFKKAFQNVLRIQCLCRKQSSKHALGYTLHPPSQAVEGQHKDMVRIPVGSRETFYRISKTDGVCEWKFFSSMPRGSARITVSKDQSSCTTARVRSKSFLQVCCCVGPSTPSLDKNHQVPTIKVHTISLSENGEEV

[11] = target: Alpha-1B adrenergic receptor (Homo sapiens) (UniProt P35368)
[12] = target: T3, Alpha-2A adrenergic receptor (Homo sapiens) (UniProt P08913)
T3 sequence (whole entry): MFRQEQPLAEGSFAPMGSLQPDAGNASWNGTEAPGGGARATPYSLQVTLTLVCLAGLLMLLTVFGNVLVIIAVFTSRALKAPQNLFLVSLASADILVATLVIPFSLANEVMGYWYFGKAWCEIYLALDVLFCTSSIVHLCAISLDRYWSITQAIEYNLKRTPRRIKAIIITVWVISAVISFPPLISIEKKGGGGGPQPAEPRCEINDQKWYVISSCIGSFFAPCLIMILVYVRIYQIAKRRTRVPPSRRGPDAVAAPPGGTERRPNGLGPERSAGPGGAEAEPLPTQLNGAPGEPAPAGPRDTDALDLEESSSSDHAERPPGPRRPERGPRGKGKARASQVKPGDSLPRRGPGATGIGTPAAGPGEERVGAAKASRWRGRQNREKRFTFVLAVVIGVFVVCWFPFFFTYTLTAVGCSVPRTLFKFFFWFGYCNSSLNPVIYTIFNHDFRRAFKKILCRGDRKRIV

[13] = target: T4, Alpha-2C adrenergic receptor (Homo sapiens) (UniProt P18825)
T4 sequence (whole entry): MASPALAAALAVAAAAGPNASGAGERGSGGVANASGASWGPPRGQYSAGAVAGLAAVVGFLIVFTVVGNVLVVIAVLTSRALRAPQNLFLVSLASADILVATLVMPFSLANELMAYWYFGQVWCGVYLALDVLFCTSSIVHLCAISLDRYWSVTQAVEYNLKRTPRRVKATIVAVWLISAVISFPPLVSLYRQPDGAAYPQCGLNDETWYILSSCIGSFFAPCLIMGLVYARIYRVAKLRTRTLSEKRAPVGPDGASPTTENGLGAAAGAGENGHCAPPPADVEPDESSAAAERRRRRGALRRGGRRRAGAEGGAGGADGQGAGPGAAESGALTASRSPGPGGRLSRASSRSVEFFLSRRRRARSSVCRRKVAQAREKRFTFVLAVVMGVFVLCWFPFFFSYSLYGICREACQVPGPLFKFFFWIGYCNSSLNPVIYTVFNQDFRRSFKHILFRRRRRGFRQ

[14] = target: Beta-1 adrenergic receptor (Homo sapiens) (UniProt P08588)
[15] = target: Sigma intracellular receptor 2 (Homo sapiens, UniProt Q5BJF2)
Chain of Sigma intracellular receptor 2 (Q5BJF2 whole entry): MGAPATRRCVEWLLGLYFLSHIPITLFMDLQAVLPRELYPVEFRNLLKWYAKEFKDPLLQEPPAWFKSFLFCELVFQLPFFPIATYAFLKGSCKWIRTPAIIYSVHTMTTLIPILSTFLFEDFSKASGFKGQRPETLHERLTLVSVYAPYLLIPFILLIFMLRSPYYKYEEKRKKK

Chain of D(1B) dopamine receptor (Homo sapiens) (P21918 whole entry): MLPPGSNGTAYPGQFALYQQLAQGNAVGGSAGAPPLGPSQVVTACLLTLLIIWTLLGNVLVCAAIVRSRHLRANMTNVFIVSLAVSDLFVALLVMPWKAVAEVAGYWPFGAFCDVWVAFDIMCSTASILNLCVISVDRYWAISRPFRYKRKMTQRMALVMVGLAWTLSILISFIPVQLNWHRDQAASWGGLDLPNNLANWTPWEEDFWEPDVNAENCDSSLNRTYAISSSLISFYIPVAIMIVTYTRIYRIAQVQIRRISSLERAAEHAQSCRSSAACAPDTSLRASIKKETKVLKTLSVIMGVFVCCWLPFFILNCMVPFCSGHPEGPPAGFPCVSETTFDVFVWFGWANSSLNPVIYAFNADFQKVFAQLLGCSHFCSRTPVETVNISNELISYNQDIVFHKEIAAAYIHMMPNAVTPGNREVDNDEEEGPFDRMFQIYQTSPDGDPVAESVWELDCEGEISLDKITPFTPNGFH
Chain of Mu-type opioid receptor (Homo sapiens) (P35372 whole entry): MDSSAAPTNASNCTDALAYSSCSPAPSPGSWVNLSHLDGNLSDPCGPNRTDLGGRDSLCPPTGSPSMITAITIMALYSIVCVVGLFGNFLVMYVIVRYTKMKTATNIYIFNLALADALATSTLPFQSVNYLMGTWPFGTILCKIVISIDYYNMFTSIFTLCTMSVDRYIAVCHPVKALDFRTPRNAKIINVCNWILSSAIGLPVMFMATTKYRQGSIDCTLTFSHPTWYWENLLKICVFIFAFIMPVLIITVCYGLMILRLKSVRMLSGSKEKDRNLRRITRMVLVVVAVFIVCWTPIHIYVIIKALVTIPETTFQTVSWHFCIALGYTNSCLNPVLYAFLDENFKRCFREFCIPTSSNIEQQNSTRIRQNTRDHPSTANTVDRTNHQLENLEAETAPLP
Chain of 5-hydroxytryptamine receptor 2B (Homo sapiens) (P41595 whole entry): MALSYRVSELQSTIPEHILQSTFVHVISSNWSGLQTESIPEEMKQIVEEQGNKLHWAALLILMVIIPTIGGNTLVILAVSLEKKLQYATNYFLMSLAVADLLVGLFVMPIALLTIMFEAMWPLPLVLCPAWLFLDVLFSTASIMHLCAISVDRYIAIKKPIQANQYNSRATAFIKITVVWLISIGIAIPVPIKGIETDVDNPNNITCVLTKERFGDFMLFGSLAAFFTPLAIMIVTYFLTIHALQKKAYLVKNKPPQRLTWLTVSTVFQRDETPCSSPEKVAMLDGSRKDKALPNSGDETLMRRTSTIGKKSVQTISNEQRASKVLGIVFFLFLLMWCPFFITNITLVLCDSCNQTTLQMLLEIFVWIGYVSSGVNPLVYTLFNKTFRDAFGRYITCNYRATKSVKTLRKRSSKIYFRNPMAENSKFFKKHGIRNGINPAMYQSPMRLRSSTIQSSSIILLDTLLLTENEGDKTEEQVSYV
Chain of Beta-1 adrenergic receptor (Homo sapiens) (P08588 whole entry, looked up): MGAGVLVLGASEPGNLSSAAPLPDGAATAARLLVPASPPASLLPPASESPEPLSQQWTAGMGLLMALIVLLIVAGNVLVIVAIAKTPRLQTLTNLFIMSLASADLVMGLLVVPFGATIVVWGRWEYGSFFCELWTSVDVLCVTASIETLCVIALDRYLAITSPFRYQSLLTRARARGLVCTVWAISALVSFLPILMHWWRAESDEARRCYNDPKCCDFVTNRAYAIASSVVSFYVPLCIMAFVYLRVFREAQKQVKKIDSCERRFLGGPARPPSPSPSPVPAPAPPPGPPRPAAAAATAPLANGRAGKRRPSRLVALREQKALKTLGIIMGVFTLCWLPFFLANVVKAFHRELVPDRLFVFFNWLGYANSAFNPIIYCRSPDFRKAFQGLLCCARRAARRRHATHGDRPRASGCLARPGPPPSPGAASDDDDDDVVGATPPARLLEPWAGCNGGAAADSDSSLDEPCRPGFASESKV
Chain of 5-hydroxytryptamine receptor 7 (Homo sapiens) (P34969 whole entry): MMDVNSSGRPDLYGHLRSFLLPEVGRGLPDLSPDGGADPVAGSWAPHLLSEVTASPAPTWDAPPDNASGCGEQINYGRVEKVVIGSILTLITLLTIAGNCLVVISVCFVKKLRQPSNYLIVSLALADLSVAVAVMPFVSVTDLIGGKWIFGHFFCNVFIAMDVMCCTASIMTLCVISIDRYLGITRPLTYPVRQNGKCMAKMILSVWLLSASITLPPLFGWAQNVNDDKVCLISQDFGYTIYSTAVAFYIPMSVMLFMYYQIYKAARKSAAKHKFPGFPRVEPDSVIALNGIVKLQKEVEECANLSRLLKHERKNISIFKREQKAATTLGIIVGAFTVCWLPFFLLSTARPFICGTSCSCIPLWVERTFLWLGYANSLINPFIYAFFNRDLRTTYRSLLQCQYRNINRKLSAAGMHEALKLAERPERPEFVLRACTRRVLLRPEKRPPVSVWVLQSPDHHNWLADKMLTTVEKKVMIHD
Chain of D(2) dopamine receptor (Homo sapiens) (P14416 whole entry): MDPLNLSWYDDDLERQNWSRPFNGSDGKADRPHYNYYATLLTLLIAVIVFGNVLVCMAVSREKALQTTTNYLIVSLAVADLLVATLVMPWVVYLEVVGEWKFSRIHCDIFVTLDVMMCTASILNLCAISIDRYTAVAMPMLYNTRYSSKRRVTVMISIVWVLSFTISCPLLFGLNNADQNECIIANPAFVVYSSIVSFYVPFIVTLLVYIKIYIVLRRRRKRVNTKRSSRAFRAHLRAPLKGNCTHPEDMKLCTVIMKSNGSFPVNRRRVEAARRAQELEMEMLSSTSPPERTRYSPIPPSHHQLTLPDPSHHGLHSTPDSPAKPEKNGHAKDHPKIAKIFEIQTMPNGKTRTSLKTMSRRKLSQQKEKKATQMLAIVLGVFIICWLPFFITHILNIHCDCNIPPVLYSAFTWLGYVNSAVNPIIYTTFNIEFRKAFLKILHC
Chain of Kappa-type opioid receptor (Homo sapiens) (P41145 whole entry): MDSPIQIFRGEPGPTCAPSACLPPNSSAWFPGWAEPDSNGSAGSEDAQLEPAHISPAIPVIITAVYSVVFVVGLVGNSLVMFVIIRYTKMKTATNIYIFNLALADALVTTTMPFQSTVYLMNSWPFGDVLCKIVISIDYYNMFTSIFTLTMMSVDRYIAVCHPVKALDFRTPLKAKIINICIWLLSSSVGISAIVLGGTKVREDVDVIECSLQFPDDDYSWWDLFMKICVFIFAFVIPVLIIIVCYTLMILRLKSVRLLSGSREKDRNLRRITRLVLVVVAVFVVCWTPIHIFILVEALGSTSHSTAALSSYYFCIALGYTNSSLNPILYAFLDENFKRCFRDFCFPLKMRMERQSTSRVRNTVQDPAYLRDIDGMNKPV
Chain of Histamine H1 receptor (Homo sapiens) (P35367 whole entry): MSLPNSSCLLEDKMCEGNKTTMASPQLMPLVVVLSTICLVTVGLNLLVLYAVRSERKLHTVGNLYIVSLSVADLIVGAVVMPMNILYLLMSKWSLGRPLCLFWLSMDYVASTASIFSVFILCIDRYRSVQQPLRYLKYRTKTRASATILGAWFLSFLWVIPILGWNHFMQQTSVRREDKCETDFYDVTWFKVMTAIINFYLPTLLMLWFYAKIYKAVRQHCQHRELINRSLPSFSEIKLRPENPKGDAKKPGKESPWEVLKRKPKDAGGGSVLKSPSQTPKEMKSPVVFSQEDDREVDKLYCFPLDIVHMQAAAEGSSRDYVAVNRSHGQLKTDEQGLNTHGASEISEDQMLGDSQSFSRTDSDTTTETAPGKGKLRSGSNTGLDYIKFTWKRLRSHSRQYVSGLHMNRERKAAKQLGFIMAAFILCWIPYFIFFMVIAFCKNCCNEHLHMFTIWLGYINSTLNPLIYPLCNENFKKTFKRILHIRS
Chain of 5-hydroxytryptamine receptor 6 (Homo sapiens) (P50406 whole entry): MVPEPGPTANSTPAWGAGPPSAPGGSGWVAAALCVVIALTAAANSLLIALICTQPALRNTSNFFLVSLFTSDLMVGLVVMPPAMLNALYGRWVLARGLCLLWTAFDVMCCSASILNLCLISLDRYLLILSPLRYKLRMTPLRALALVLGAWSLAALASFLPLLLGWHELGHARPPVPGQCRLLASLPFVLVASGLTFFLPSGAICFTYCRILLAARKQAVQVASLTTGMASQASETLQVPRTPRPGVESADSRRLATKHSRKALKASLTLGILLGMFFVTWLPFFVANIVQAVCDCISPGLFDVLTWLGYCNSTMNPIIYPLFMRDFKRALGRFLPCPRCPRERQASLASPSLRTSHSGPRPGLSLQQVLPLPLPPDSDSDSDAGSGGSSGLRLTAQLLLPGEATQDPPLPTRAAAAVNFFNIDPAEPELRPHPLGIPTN
Chain of Alpha-1B adrenergic receptor (Homo sapiens) (P35368 whole entry): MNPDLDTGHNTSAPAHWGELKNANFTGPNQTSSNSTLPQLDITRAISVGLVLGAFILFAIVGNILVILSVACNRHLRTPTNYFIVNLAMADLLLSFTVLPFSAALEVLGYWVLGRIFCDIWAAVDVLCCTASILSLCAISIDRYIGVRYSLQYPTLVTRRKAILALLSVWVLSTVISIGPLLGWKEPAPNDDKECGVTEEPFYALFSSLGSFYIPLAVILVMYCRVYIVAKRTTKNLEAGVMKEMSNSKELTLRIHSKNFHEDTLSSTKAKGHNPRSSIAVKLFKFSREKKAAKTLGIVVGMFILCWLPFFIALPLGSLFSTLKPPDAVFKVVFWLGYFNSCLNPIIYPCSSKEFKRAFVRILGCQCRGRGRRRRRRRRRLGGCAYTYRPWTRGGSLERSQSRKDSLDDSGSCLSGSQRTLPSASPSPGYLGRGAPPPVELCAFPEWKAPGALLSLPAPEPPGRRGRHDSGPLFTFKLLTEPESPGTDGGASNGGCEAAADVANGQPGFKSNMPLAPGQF

| SMILES | inhibition [1] | inhibition [2] | inhibition [3] | inhibition [4] | inhibition [5] | inhibition [6] | inhibition [7] | inhibition [8] | inhibition [9] | inhibition [10] | inhibition [11] | inhibition [12] | inhibition [13] | inhibition [14] | inhibition [15] |
| --- | --- | --- | --- | --- | --- | --- | --- | --- | --- | --- | --- | --- | --- | --- | --- |
| Cc1c(N2CCNCC2)nc2ccc(Br)cc2c1C(=O)NC[C@H](CCC(=O)O)c1ccccc1Cl [BAY-403] | 31% | 12.7% | 1.76% | 13% | 2.75% | 5.3% | 40.9% | 17.7% | 17.5% | 23.3% | -2.31% | 65% | 5.7% | 12.6% | 60% |
| Cc1c(N2CCCC2)nc2ccc(Br)cc2c1C(=O)NC[C@H](CCC(=O)O)c1ccccc1Cl [BAY-6672] | 5.5% | 2.98% | 6.59% | 0.4% | 9.71% | 25% | 11.7% | 15.4% | 4.61% | 1.72% | -4.96% | -4.59% | 16.1% | 15.7% | 8.52% |
